In series [1] the test system is SARS‐CoV‐2. The settings on record: previously found; cited from earlier work.
Series [2] deals with SARS‐CoV‐2/FFM1. Put plainly: microbe, parasite or virus in culture. Conditions: Severe acute respiratory syndrome coronavirus 2, Caco-2, 48 h, read-out: EC50 visual CPE.
For series [3], the system named is SARS‐CoV‐2/FFM1.
Series [4] has as its system SARS‐CoV‐2. The settings on record: read-out: EC50 reported in previous studies (range); cited from earlier work.

Where two headings read alike, the source gives them in different places.

`CCN(CC)CCCC(C)Nc1ccnc2cc(Cl)ccc12` (stereo not shown) [Chloroquine]: the “activity in SARS‐CoV‐2–infected Caco‐2 cells” value in series [1] is “inactive”.

In the case of `COc1cccc2c1C(=O)c1c(O)c3c(c(O)c1C2=O)C[C@@](O)(C(=O)CO)C[C@@H]3O[C@H]1C[C@H](N)[C@H](O)[C@H](C)O1` [Doxorubicin], the concentration for a half-maximal effect (EC50) (commonly the concentration at which the effect is half-maximal) in series [2] came to 12 µM.

For `CCN(CCO)CCCC(C)Nc1ccnc2cc(Cl)ccc12` (stereo not shown) [Hydroxychloroquine], the “activity in SARS‐CoV‐2–infected Caco‐2 cells” value in series [1] was “inactive”.

As for `CCC(C)n1ncn(-c2ccc(N3CCN(c4ccc(OCC5COC(Cn6cncn6)(c6ccc(Cl)cc6Cl)O5)cc4)CC3)cc2)c1=O` (stereo not shown) [Itraconazole], the EC50 in series [2] amounted to 1.6 µM.

As for `Cc1c(O)cccc1C(=O)N[C@@H](CSc1ccccc1)[C@H](O)CN1C[C@H]2CCCC[C@H]2C[C@H]1C(=O)NC(C)(C)C` [Nelfinavir], the EC50 in series [2] amounted to 8.1 µM.

In the case of `O=C(NC1CN2CCC1CC2)c1cc(Cl)cc2c1OC1CCCCC21` (stereo not shown) [RG‐12915], the EC50 in series [3] (read-out: EC50 visual CPE) came to 12 µM.

In the case of `CCC(CC)COC(=O)[C@H](C)N[P@](=O)(OC[C@H]1O[C@@](C#N)(c2ccc3c(N)ncnn23)[C@H](O)[C@@H]1O)Oc1ccccc1` [Remdesivir], the EC50 in series [2] is 1.3 µM; in series [4] it was 0.77 to 7.28 µM.

With `CCN(CC)CCNC(=O)c1ccc(NS(C)(=O)=O)cc1` [Sematilide], the “antiviral activity in Caco‐2 cells” value in series [3] (Caco‐2 cells, SARS‐CoV‐2/FFM1) is on record as “not active”. The half-maximal effective concentration (EC50) in series [2] was above 100 µM.

These data come from paper PMC9088669 (Journal of Medical Virology, 2022).
